Experimental findings from article PMC12379159 (Journal of Natural Products, 2025) are described below.

The subject of data set [1] is Il17a and Il17f (Il17a/f). Briefly: RT-qPCR of Il17a and Il17f in EL-4-mRORγt cells. The format is cell-based, murine. The following applies: indicated concentrations, 20–24 h, then 4.5-h PMA and ionomycin. As to the method:
For RT-qPCR assays, 5 × 10^5 EL-4-mRORγt cells were seeded in 500 μL complete DMEM per well of a 24-well plate and treated with the vehicle control, the positive control, or the compounds of interest. After incubation for 20–24 h, cells were stimulated with Cell Activation Cocktail (PMA: 40.5 μM, ionomycin: 669.3 μM; 500X) for 4.5 h. Afterward, total RNA was isolated using the innuPREP RNA Mini Kit 2.0 according to the manufacturer’s instructions. According to the manufacturer’s instructions, 1 μg RNA was reverse-transcribed into cDNA using the High-Capacity cDNA Reverse Transcription Kit. RT-qPCR was performed using the Luna Universal qPCR Master Mix on a LightCycler 480 (Roche Diagnostics, Rotkreuz, Switzerland) according to the manufacturer’s instructions. […] Livak’s 2−ΔΔCt method was employed to determine the expression levels of RORγ target genes. This involved normalizing the target gene expression to the expression levels of the control gene 18s, followed by further normalization to the vehicle control.
On the technique in general: Quantitative PCR measures a nucleic acid by following its amplification.

Another data set deals with EL-4-mRORγt cells. Briefly: Resazurin conversion assay in EL-4-mRORγt cells. The data set is classed as cell-based, murine. The following applies: 5 μM, 20-24 h. As to the method: To check the metabolic activity of cells correlating with cell viability, cells were treated with the vehicle control (0.1% DMSO), digitonin as the positive control for cytotoxicity at 20 μg/mL (HEK293 cells) or 50 μg/mL (EL-4-mRORγt cells), or the compounds of interest at 5 μM for 18 h (HEK293 cells) or 20–24 h (EL-4-mRORγt cells). The next day, the medium was carefully removed and replaced with stripped DMEM without phenol red, containing 10 μg/mL resazurin sodium salt. Cells were incubated for 5 h before RFU values were measured at λem = 590 nm using a spectrophotometer. Cell viability was calculated as follows: Cell viability(%)=100×RFU value after compound treatment/RFU value after vehicle control treatment Cytotoxicity was defined as cell viability under 70% according to the ISO 10993–5 guidelines. Cell viability <90% is explicitly stated in the respective figure.
Background: The colour change of resazurin is a common sign of viable cells or microbes.

A further data set has as its target T1, Gal4-RORγ H479L (Homo sapiens, UniProt P51449, H479L).
T1 sequence (P51449 269-508 H479L limits assumed): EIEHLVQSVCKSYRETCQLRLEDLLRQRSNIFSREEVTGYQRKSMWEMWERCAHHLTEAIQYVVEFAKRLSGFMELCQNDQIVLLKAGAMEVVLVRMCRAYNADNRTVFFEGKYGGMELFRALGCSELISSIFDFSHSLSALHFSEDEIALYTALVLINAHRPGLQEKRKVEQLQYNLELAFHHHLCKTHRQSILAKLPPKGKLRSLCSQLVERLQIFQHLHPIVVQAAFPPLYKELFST
Briefly: Gal4-RORγ H479L mutant luciferase assay. Particulars: 5 μM.

In another data set the target is T2, full-length human RORγ (Homo sapiens, UniProt P51449).
T2 construct: Encodes for the full-length human RORγ; expressed in transfected cells; host or cells: HEK293
T2 sequence (P51449 1-518): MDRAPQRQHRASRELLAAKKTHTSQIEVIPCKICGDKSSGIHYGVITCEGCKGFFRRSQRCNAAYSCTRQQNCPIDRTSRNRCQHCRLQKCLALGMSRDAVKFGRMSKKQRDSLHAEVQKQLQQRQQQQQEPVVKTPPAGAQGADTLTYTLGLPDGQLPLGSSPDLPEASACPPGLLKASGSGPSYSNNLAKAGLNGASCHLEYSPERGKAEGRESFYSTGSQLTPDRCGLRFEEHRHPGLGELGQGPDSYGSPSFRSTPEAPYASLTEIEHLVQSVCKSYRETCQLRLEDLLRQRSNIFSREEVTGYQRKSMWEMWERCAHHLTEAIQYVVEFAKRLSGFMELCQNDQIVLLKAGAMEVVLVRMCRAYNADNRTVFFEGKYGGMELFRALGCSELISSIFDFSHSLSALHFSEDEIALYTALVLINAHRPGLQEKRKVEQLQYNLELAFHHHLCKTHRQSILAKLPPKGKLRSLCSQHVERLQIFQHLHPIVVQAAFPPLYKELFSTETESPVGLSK
Kind of data set: Full-length RORγ luciferase assay (RORE-LUC reporter). The data set is classed as cell-based. Particulars: HEK293 cells. As to the method: For luciferase assays, 8 × 10^6 HEK293 cells were seeded on 150 mm cell culture dishes and incubated for 5 h. Afterward, cells were transfected with the calcium phosphate coprecipitation method using 5 μg of the nuclear receptor (Gal4-hRORγ or full-length human RORγ), 5 μg of a luciferase reporter (pTK-MH100 × 4-LUC for Gal4-hRORγ experiments or RORE-LUC for full-length human RORγ experiments) and 3 μg eGFP-N1 (for assessing transfection efficiency) plasmid DNA and incubated overnight. […] The medium was changed the following day, and cells were further incubated for another four to 5 h before trypsin/EDTA was added to detach them from the dishes. […] RLUs were normalized to relative fluorescence units (RFU) to account for differences in cell number and transfection efficiency and then normalized to the vehicle control. Results are expressed as fold activation relative to the vehicle control.
Concentration–response data were analyzed in GraphPad Prism version 10 by three-parameter logistic nonlinear regression, with the Hill slope constrained to a theoretical value of −1.0. An IC50 value was determined only for compounds yielding a statistically reliable fit. […] In these cases, only the maximal inhibition achieved at the highest tested concentration (I max(%) at 5 μM) is reported, calculated as follows: Imax(%)=(1−Bottom/Top)×100 (“top” = baseline activity measured at the lowest concentration, “bottom” = residual activity observed at the highest concentration, corresponding to the maximal inhibitory effect).

Method for Gal4-RORγ H479L: Gal4-hRORγ H323A and H479L mutants were generated using the QuikChange Lightning Site-Directed Mutagenesis Kit according to the manufacturer’s instructions. Briefly, 10 ng template DNA (Gal4-hRORγ) was PCR-amplified with the respective mutagenic forward and reverse primers listed in Table S3, which were designed using the QuikChange Primer Design tool (https://www.agilent.com/store/primerDesignProgram.jsp). […] Two μL of the PCR product were then transformed into XL1-Blue competent E. coli according to a protocol provided by NEB. […] After centrifuging the main culture at 5691g for 10 min, the supernatant was decanted, and plasmid preparation was performed using the PureLink HiPure Plasmid Midiprep Kit according to the manufacturer’s instructions. DNA yields and purities were checked using a NanoDrop 2000c (Thermo Fisher Scientific, Waltham, MA, USA).

For the molecule `C=C(C)[C@@H]1CC[C@]2(C(=O)O)CC[C@]3(C)[C@H](CC[C@@H]4[C@@]5(C)C/C(=C/c6ccco6)C(=O)C(C)(C)[C@@H]5CC[C@]43C)[C@@H]12` [Compound 15, (2Z)-2-(2-furanylmethylene)-3-oxolup-20(29)-en-28-oic acid], in data set [1], the Il17a expression entry is listed as “failed to affect Il17a expression levels” and the Il17f expression entry is recorded as “slight yet concentration-dependent decrease”. For the same molecule, in the data set with EL-4-mRORγt cells, the “Cytotoxic effects, resazurin conversion assay” value is on record as “no cytotoxic effects”. In addition, on Gal4-RORγ H479L, the “Activity on Gal4-RORγ H479L vs WT” value is listed as “loss of activity”. For the same molecule, the “Imax(%) at 5 μM, full-length RORγ luciferase assay” value at full-length human RORγ (5 μM) was found to be 69%. The IC50 on full-length human RORγ (18 h treatment, up to 5 μM, read-out: IC50, full-length RORγ luciferase assay) turned out to be 900 nM.

Broadly, the IC50 is the concentration that gives 50% inhibition.
